Test results reported in ChEMBL document CHEMBL2029216, “Synthesis and evaluation of [18F]Fluorobutyl ethacrynic amide: a potential PET tracer for studying glutathione transferase” (Bioorg Med Chem Lett, 2012).
One block for each molecule: values may come before it.

Tests used:
A549 = assay: Cytotoxicity against human A549 cells; assay type: functional, cell-based
MCF7 = assay: Cytotoxicity against human MCF7 cells; assay type: functional, cell-based
IMR-90 = assay: Cytotoxicity against human IMR90 cells; assay type: cell-based
Urinary bladder = assay: Drug uptake in mouse bladder after 5 mins; assay type: ADME, tissue-based; details: in vivo
Liver [1] = assay: Drug uptake in Sprague-Dawley rat liver expressing GSTalpha assessed as homogeneous distribution of [18F]FBuEA-GSH10 complex at 717 uCi/mL, iv after 120 mins by PET analysis; assay type: ADME, organism-based; details: in vivo, 2 h
[2] = Drug uptake in TAA-induced cholangiocarcinoma model of rat tumor expressing GSTalpha assessed as cold spot using [18F]FDG at 486 uCi/0.23 mL, iv after 5 days by PET analysis; assay type: ADME, organism-based, Neoplasm; details: in vivo, 120 h
[3] = Drug uptake in 18 weeks TAA treated rat TAA-induced cholangiocarcinoma model tumor expressing GSTalpha assessed as hot spot using [18F]FDG at 486 uCi/0.23 mL, iv after 30 mins by PET analysis; assay type: ADME, organism-based, Neoplasm; details: in vivo, 0.5 h
[4] = Octanol-water partition coefficient, Log P of the compound at 12.6 uCi by Shake-flask method; assay type: physicochemical
[5] = Drug uptake in 23 weeks TAA treated rat TAA-induced cholangiocarcinoma model tumor expressing GSTalpha assessed as cold spot using [18F]FDG at 801 uCi/0.23 mL, iv after 5 to 10 mins by PET analysis; assay type: ADME, organism-based, Neoplasm; details: in vivo
Liver [6] = assay: Drug uptake in mouse liver after 5 mins; assay type: ADME, tissue-based; details: in vivo
Kidney = assay: Drug uptake in mouse kidney after 5 mins; assay type: ADME, tissue-based; details: in vivo
Liver [7] = assay: Drug uptake in TAA-induced cholangiocarcinoma model of rat liver expressing GSTalpha assessed as heterogeneous distribution of [18F]FBuEA-GSH10 complex at 569 uCi/0.6 mL, iv after 120 mins by PET analysis; assay type: ADME, organism-based; details: in vivo, 2 h
[8] = Half life in rat plasma at 6.3 MBq, iv by HPLC analysis; assay type: ADME, organism-based
Nucleic Acid = assay: Ratio of drug level in tumor to liver in rat TAA-induced cholangiocarcinoma model; assay type: ADME, tissue-based; details: in vivo

SMILES: C=C(CC)C(=O)c1ccc(OCC(=O)NCCCC)c(Cl)c1Cl
IC50 (A549): 13 µM
IC50 (MCF7): 4 µM

SMILES: C=C(CC)C(=O)c1ccc(OCC(=O)NCCCCF)c(Cl)c1Cl
IC50 (A549): 8 µM
IC50 (MCF7): 3 µM
IC50 (IMR-90): 18 µM

Drug uptake (Urinary bladder): Active
Drug uptake (Liver [1]): Active
Drug uptake [2]: Active
Drug uptake [3]: Active
logP [4]: 1.47
Drug uptake [5]: Active
Drug uptake (Liver [6]): Active
Drug uptake (Kidney): Active
Drug uptake (Liver [7]): Active
SMILES: C=C(CC)C(=O)c1ccc(OCC(=O)NCCCC[18F])c(Cl)c1Cl

half-life [8]: 30 min
SMILES: C=C(CC)C(=O)c1ccc(OCC(=O)O)c(Cl)c1Cl [ETHACRYNIC ACID]
IC50 (A549): 84 µM

Ratio (Nucleic Acid): 1.6
SMILES: OC[C@H]1O[C@@H](O)[C@H]([18F])[C@@H](O)[C@@H]1O [FLUDEOXYGLUCOSE-F18]
